From US5510375A, “Coumarin derivatives as protease inhibitors and antiviral agents” (Warner-Lambert Company, priority 1993, dated 1996)

Tested on: HIV
Experiment: not given
Conditions: R. Nagorny et al., AIDS, 7: 129-130 (1993); cited from earlier work

Structure (SMILES)	inhibiting cell-free and cell-mediated HIV infection
CC(=O)CC(c1ccccc1)c1c(O)c2ccccc2oc1=O (stereo not drawn) [Warfarin, 3-(α-acetonylbenzyl)4-hydroxycoumarin]	inhibiting cell-free and cell-mediated HIV infection

Tested on: HIV-1iiib
Experiment: Anti-HIV-1 activity in H9 cells (acute infection, reverse transcriptase assay)
Format: cell-based
Conditions: Human immunodeficiency virus 1, acute HIV-1iiib infection, multiplicity of infection 0.01, 4 and 7 days post infection, 0.2% DMSO, read-out: Therapeutic Concentration for 50% Protection of Cells
Description: Using the general methods of Pauwels et al., (J. Virol. Methods, 16: 171-185 (1987) and Mann et al. (AIDS Research and Human Retroviruses, 253-255 (1989)) anti-viral assays of acute HIV-1 infection were performed in the H9 cell line. Cultures were batch infected in 1 ml of RPM1 1640 media/10% fetal calf serum containing 10^7 cells and 10^5 infectious doses of HIV-1iiib for an effective multiplicity of infection of 0.01. After 2 hours of viral absorption, cells were washed once and plated in 96-well microtiter plates at a density of 10^4 cells per well. Test compounds were added to produce the desired concentration of drug and 0.2% DMSO in a final volume of 200 μl. Uninfected parallel cultures were maintained for XTT cytotoxicity assay at 7 days post infection. Cultures were tested for viral replication by reverse transcriptase assay at 4 and 7 days post infection.

Structure (SMILES)	EC50 [µM]
CCOC(=O)c1cccc(OCCCc2c(O)c3ccccc3oc2=O)c1 [Example 8, Ethyl 3-3-(4-hydroxy-2-oxo-2H-1-benzopyran-3-yl)propoxy!benzoate]	58
COc1ccccc1CCCCc1c(O)c2ccccc2oc1=O [Example 13, 4-Hydroxy-3-4-(2-methoxyphenyl)butyl!-2H-1-benzopyran-2-one]	13

Target: T1, HIV-1 Protease (Human immunodeficiency virus type 1 group M subtype B, UniProt P04585)
T1 construct: purchased Bachem Bioscience Inc
Experiment: HIV Protease Inhibition (hydrolysis of undecapeptide Substrate III, HPLC)
Format: biochemical
Conditions: not given
Description: 1.0 mM dithiothreitol (DTT) was prepared fresh daily in 0.1% polyethylene glycol (mw 8000) 80 mM NaOAc, 160 mM NaCl, 1.0 mM EDTA, and brought to pH 4.7 with HCl.
The enzyme is obtained from Bachem Bioscience Inc. The undiluted enzyme is thawed from -80° C. and diluted 50-fold with DTT buffer. The solution is always kept at 0° C. on ice water and used in the experiment within 20 minutes after thawing.
Substrate III from Bachem Bioscience Inc. is the undecapeptide H-His-Lys-Ala-Arg-Val-Leu-p-Nitrophenylalanine-Glu-Ala-Norleucine-Ser-NH2 (>97% purity). A 200 μM stock solution in DTT buffer is prepared and stored on ice. Substrate solution is prepared fresh daily.
10 mM inhibitor (I) in dimethyl sulfoxide (DMSO) is diluted to 200 μM with DTT buffer. From the 200 μM stock solution is made a 10 μM stock solution with 2% DMSO in DTT buffer. The two inhibitor solutions are used to make final (I)=100, 50, 20, 10, 5, 0.5 and 0 μM with 2% DMSO in DTT buffer in each reaction well (total inhibitor volume of 50 μl).
To each reaction well is added 20 μl of substrate (final concentration of 40 μM), 50 μl of inhibitor (at a concentration such that final dilution will produce the test concentration) and 20 μl of DTT buffer. The reaction plate (96 wells) is incubated at 37° C. for at least 5 minutes.
10 μl of the diluted protease is added to the reaction well while the reaction plate is shaking. Once shaken for 10 seconds, the plate is returned to the heating block at 37° C. (Final reaction volume=100 μl)
The reaction is incubated for 5 minutes at 37° C. The reaction is stopped by placing the reaction plate on the shaker and adding 20 μl of 10% trifluoroacetic acid (TFA) and shaking for 10 seconds. The amount of proteolysis is then determined by separation of noncleaved substrate and two cleaved products with reverse-phase HPLC, while measuring absorbance at 220 nm to determine the relative peak areas of the three components. The relative peak areas are used to calculate % conversion to product as a function of inhibitor concentration. The data is plotted as % Control (the ratio of % conversion in the presence and absence of inhibitor×100) versus inhibitor concentration and fit with the equation Y=100/1+(X/IC50)^A, where IC50 is the inhibitor concentration at 50% inhibition and A is the slope of the inhibition curve.

Structure (SMILES)	IC50 [µM]
O=c1oc2ccccc2c(O)c1CCCOc1cccc(Cl)c1 [Example 7, 3-3-(3-Chlorophenoxy)propyl!-4-hydroxy-2H-1-benzopyran-2-one]	1.3
COc1ccc2c(O)c(CCCCc3ccccc3OC)c(=O)oc2c1 [Example 22, 4-Hydroxy-7-methoxy-3-4-(2-methoxyphenyl)butyl!-2H-1-benzopyran-2-one]	1.4
N#Cc1cccc(OCCCc2c(O)c3ccccc3oc2=O)c1 [Example 37, 3-3-(3-Cyanophenoxy)propyl!-4-hydroxy-2H-1-benzopyran-2-one]	0.6
O=c1oc2ccccc2c(O)c1C(SC1CCCCC1)c1ccccc1 (stereo not drawn) [Example 42, 3-(Cyclohexylthio)phenylmethyl!-4-hydroxy-2H-1-benzopyran-2-one]	0.4

Same assay, conditions: pH 4.7, 37° C., 40 μM substrate, 2% DMSO, 5 minutes; read-out: 50% Inhibition Concentration

Structure (SMILES)	IC50 [µM]
COc1ccc(OCCCc2c(O)c3ccccc3oc2=O)cc1 [Example 4, 4-Hydroxy-3-3-(4-methoxyphenoxy)propyl!-2H-1-bensopyran-2-one]	1.9
O=C(O)c1cccc(OCCCc2c(O)c3ccccc3oc2=O)c1 [Example 9, 3-3-(4-Hydroxy-2-oxo-2H-1-benzopyran-3-yl)propoxy!benzoic acid]	5
O=c1oc2ccccc2c(O)c1CCCOc1cccc(CO)c1 [Example 10, 4-Hydroxy-3-3-(3-hydroxymethylphenoxy)propyl!-2H-1-benzopyran-2-one]	1.2
COc1ccccc1CCCCc1c(O)c2ccccc2oc1=O [Example 13, 4-Hydroxy-3-4-(2-methoxyphenyl)butyl!-2H-1-benzopyran-2-one]	1.7
O=c1oc2ccccc2c(O)c1CCCCc1ccccc1O [Example 14, 4-Hydroxy-3-4-(2-hydroxyphenyl)butyl!-2H-1-benzopyran-2-one]	2.8
COc1ccccc1CCCCc1c(O)c2cccc(C)c2oc1=O [Example 23, 4-Hydroxy-3-4-(2-methoxyphenyl)butyl!-8-methyl-2H-1-benzopyran-2-one]	5
COc1ccccc1CCCCc1c(O)c2ccc(O)cc2oc1=O [Example 43, 4,7-Dihydroxy-3-4-(2-methoxyphenyl)butyl!-2H-1-benzopyran-2-one]	0.5

Same assay, conditions: read-out: 50% Inhibition Concentration

Structure (SMILES)	IC50 [µM]
CCOC(=O)c1cccc(OCCCc2c(O)c3ccccc3oc2=O)c1 [Example 8, Ethyl 3-3-(4-hydroxy-2-oxo-2H-1-benzopyran-3-yl)propoxy!benzoate]	0.5
